Drawing on patent US12516046B2, “2-oxo-oxazolidine-5-carboxamides as NAV1.8 inhibitors” (Merck Sharp & Dohme LLC, priority 2020, dated 2026), this text covers IC50 for 30 molecules.

This test concerns the target human Nav1.8 (Homo sapiens (Human), UniProt Q9Y5Y9). As to the kind of experiment: Nav1.8 Qube® Assay (automated 384-well patch-clamp). In kind it is cell-based. The note with it: human Nav1.8 channels stably expressed in HEK 293 cells. From the text:
Qube® Assay Experimental Procedure
On the technique in general: The patch-clamp technique gives a direct electrical read-out from membranes.

Chain of human Nav1.8 (Q9Y5Y9 whole entry): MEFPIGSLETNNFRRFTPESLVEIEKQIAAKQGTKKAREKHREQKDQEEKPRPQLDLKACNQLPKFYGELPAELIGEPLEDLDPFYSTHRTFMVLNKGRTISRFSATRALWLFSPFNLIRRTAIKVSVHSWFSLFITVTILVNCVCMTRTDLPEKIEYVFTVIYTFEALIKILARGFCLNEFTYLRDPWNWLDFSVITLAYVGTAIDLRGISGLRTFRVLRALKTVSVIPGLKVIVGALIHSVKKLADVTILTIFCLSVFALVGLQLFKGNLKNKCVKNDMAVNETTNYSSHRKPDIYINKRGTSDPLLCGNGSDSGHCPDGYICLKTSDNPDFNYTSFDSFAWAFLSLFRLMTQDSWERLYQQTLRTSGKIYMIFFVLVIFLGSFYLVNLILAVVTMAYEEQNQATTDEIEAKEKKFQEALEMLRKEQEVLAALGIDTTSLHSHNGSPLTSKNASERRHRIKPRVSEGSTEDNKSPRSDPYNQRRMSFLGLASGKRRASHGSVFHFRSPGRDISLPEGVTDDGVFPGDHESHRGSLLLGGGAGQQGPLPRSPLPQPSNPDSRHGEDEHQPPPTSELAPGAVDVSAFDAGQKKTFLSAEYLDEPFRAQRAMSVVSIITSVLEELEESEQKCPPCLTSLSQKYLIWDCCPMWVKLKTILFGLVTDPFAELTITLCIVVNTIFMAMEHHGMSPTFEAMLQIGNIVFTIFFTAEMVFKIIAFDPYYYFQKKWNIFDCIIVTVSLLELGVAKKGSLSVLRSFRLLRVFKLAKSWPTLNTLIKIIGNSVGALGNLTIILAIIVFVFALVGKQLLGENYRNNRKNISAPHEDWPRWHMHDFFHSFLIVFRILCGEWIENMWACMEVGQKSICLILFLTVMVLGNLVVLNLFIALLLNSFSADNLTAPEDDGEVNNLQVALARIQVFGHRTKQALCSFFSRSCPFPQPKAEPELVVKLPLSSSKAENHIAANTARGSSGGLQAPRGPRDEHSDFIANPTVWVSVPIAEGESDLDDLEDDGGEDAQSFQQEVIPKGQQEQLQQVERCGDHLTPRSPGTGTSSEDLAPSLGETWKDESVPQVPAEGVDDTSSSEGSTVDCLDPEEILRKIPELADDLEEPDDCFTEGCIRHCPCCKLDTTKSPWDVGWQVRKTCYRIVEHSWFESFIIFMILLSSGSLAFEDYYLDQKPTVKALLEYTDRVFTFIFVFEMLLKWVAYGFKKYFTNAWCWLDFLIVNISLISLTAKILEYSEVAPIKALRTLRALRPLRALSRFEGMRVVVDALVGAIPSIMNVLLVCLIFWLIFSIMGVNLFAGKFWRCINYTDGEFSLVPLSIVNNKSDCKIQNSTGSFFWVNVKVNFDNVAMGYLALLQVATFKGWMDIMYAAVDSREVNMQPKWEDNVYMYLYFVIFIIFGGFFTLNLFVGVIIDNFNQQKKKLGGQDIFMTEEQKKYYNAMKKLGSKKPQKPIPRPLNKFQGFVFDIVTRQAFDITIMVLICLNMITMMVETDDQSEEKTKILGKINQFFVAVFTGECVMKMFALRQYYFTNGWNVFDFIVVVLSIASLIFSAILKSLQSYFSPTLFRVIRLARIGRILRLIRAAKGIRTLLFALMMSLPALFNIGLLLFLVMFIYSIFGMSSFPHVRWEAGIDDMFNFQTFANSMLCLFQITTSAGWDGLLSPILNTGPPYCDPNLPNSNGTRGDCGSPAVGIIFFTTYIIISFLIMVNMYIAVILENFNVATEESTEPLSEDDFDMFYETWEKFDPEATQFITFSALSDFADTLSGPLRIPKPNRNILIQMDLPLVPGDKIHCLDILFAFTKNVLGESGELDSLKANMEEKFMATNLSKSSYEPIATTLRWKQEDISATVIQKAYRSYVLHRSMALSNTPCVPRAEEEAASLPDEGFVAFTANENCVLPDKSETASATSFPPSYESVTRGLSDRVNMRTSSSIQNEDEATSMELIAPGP

The IC50 is the concentration that inhibits the measured activity by half. For the molecule `O=C1NC[C@@H](C(=O)NC(c2ccc(Cl)cc2)c2nc(C(F)(F)F)cs2)O1` (single isomer, unassigned) [Example 12A, (S)-N-((R or S)-(4-chlorophenyl)(4-(trifluoromethyl)thiazol-2-yl)methyl)-2-oxooxazolidine-5-carboxamide], it took 16 nM to reach half-maximal inhibition (IC50).
`O=C1NC[C@@H](C(=O)NC(c2ccc(Cl)cc2)c2cccc(C3CC3)c2)O1` (single isomer, unassigned) [Example 33A, (S)-N-((R or S)-(4-chlorophenyl)(3-cyclopropylphenyl)methyl)-2-oxooxazolidine-5-carboxamide] returned an IC50 of 4.8 nM.
For `O=C1NC[C@@H](C(=O)NC(c2ccc(Cl)cc2)c2ccc(Cl)c(C(F)(F)F)c2)O1` (single isomer, unassigned) [Example 35B, (S)-N-((R or S)-(4-chloro-3-(trifluoromethyl)phenyl)(4-chlorophenyl)methyl)-2-oxooxazolidine-5-carboxamide], the IC50 was found to be 3.8 nM.
For the molecule `O=C1NC[C@@H](C(=O)NC(c2ccc(Cl)cc2)c2c[nH]c(C(F)(F)F)n2)O1` (single isomer, unassigned) [Example 17B, (S)-N-((R or S)-(4-chlorophenyl)(2-(trifluoromethyl)-1H-imidazol-4-yl)methyl)-2-oxooxazolidine-5-carboxamide], the midpoint of inhibition, the IC50, lay at 10600 nM.
Then `O=C1NC[C@@H](C(=O)NC(c2ccc(Cl)cc2)C23CCC(CC2)C3)O1` (single isomer, unassigned) [Example 3A, (S)-N-((R or S)-bicyclo[2.2.1]heptan-1-yl(4-chlorophenyl)methyl)-2-oxooxazolidine-5-carboxamide], with 133 nM.
Then `O=C1NC[C@@H](C(=O)NC(c2ccc(F)c(Cl)c2F)[C@H]2C[C@H](C(F)(F)F)C2)O1` (single isomer, unassigned) [Example 70, (S)—N—((R or S)-(3-chloro-2,4-difluorophenyl)((trans)-3-(trifluoromethyl)cyclobutyl)methyl)-2-oxooxazolidine-5-carboxamide], with 5.4 nM.
Then `O=C1NC[C@@H](C(=O)NC(c2ccc(Cl)cc2)C2CCC(F)(F)C2)O1` (single isomer, unassigned) [Example 57D, (S)-N-((R or S)-(4-chlorophenyl)((R or S)-3,3-difluorocyclopentyl)methyl)-2-oxooxazolidine-5-carboxamide], with 1160 nM; and `O=C1NC[C@@H](C(=O)NC(c2ccc(F)c(Cl)c2)c2ccc(F)c(C(F)(F)F)n2)O1` (stereo partly drawn) [Example 38, (5S)-N-((3-chloro-4-fluorophenyl)(5-fluoro-6-(trifluoromethyl)pyridin-2-yl)methyl)-2-oxooxazolidine-5-carboxamide], with 2.1 nM.
`O=C1NC[C@@H](C(=O)NC(c2ccccc2)C2C3CC4CC(C3)CC2C4)O1` (stereo partly drawn) [Example 21, (5S)-N-((adamantan-2-yl)(phenyl)methyl)-2-oxooxazolidine-5-carboxamide]: the midpoint of inhibition, the IC50, lay at 293 nM.
In turn, `O=C1NC[C@@H](C(=O)NC(c2ccc(Cl)cc2)c2ccc(OCC(F)(F)F)nn2)O1` (single isomer, unassigned) [Example 73A, (S)-N-((R or S)-(4-chlorophenyl)(6-(2,2,2-trifluoroethoxy)pyridazin-3-yl)methyl)-2-oxooxazolidine-5-carboxamide] came in with an IC50 of 964 nM.
For `O=C1NC[C@@H](C(=O)NC(c2ccc(F)c(Cl)c2)C2CCN(CC(F)(F)F)C2)O1` (single isomer, unassigned) [Example 43A, (S)-N-((R or S)-(3-chloro-4-fluorophenyl)((R or S)-1-(2,2,2-trifluoroethyl)pyrrolidin-3-yl)methyl)-2-oxooxazolidine-5-carboxamide], half-maximal inhibition (IC50) was put at 1760 nM.
Take `O=C1NC[C@@H](C(=O)NC(c2ccc(F)c(Cl)c2F)[C@@H]2C[C@@H]3[C@H](C2)C3(F)F)O1` (single isomer, unassigned) [Example 74B, (S)-N-((R or S)-(3-chloro-2,4-difluorophenyl) ((trans)-6,6-difluorobicyclo[3.1.0]hexan-3-yl)methyl)-2-oxooxazolidine-5-carboxamide]: the IC50 is 389 nM.
In turn, `O=C1NC[C@@H](C(=O)NC(c2ccc(Cl)cc2)c2ccc(Cl)c(C(F)(F)F)n2)O1` (single isomer, unassigned) [Example 2A, (S)—N—((R or S)-(5-chloro-6-(trifluoromethyl)pyridin-2-yl)(4-chlorophenyl)methyl)-2-oxooxazolidine-5-carboxamide] had an IC50 of 0.6 nM.
As for `O=C1NC[C@@H](C(=O)NC(c2ccc(OC(F)(F)F)c(Cl)c2)c2coc(C(F)(F)F)n2)O1` (single isomer, unassigned) [Example 51A, (S)-N-((R or S)-(3-chloro-4-(trifluoro-methoxy)phenyl)(2-(trifluoromethyl)oxazol-4-yl)methyl)-2-oxooxazolidine-5-carboxamide], the IC50 amounted to 5.3 nM.
As for `CC(C)(C)c1csc(C(NC(=O)[C@@H]2CNC(=O)O2)c2ccc(Cl)cc2)n1` (single isomer, unassigned) [Example 39B, (S)-N-((R or S)-(4-(tert-butyl)thiazol-2-yl)(4-chlorophenyl)methyl)-2-oxooxazolidine-5-carboxamide], the figure is 64 nM; as for `O=C1NC[C@@H](C(=O)NC(CCc2ccc(Cl)cc2)c2ccc(F)c(Cl)c2F)O1` (single isomer, unassigned) [Example 65B, (S)—N—((R or S)-1-(3-chloro-2,4-difluorophenyl)-3-(4-chlorophenyl)propyl)-2-oxooxazolidine-5-carboxamide], 11 nM; as for `O=C1NC[C@@H](C(=O)NC(c2ccc(Cl)cc2)C23CC(C(F)(F)F)(C2)C3)O1` (single isomer, unassigned) [Example 4A, (S)-N-((R or S)-(4-chlorophenyl)(3-(trifluoromethyl)bicyclo[1.1.1]pentan-1-yl)methyl)-2-oxooxazolidine-5-carboxamide], 28 nM.
`O=C1NC[C@@H](C(=O)NC(c2ccc(F)c(Cl)c2F)[C@@H]2CC[C@@H](C(F)(F)F)CO2)O1` (single isomer, unassigned) [Example 9C] yielded a half-inhibitory concentration (IC50) of 356 nM.
As for `N#Cc1ccc(C(NC(=O)[C@@H]2CNC(=O)O2)c2cnc(C(F)(F)F)c(Cl)c2)cc1Cl` (single isomer, unassigned) [Example 54B, (S)-N-((R or S)-(3-chloro-4-cyano-phenyl)(5-chloro-6-(trifluoromethyl)pyridin-3-yl)methyl)-2-oxooxazolidine-5-carboxamide], the figure is 7.2 nM; as for `O=C1NC[C@@H](C(=O)NC(Cc2ccc(Cl)cc2)c2ccc(OC(F)(F)F)cc2)O1` (stereo partly drawn) [Example 68, (5S)-N-(2-(4-chlorophenyl)-1-(4-(trifluoromethoxy)phenyl)ethyl)-2-oxooxazolidine-5-carboxamide], 246 nM.
`Cn1nc(C(NC(=O)[C@@H]2CNC(=O)O2)c2ccc(F)c(Cl)c2)cc1C(F)(F)F` (single isomer, unassigned) [Example 62A, (S)-N-((R or S)-(3-chloro-4-fluorophenyl)(1-methyl-5-(trifluoromethyl)-1H-pyrazol-3-yl)methyl)-2-oxooxazolidine-5-carboxamide]: the IC50 was 39 nM.
As for `O=C1NC[C@@H](C(=O)NC(c2ccc(OC(F)F)cc2)c2ccc(F)c(Cl)c2)O1` (single isomer, unassigned) [Example 48B, (S)-N-((R or S)-(3-chloro-4-fluorophenyl)(4-(difluoromethoxy)phenyl)methyl)-2-oxooxazolidine-5-carboxamide], the figure is 6.8 nM; as for `O=C1NC[C@@H](C(=O)NC(c2ccc(Cl)cc2)c2ccnc(C(F)(F)F)c2)O1` (stereo partly drawn) [Example 34], 94 nM; as for `CC1NC(=O)OC1C(=O)NC(c1ccc(Cl)cc1)c1ccc(Cl)cc1` (single isomer, unassigned) [Example 6B, (cis or trans)-N-(bis(4-chlorophenyl)methyl)-4-methyl-2-oxooxazolidine-5-carboxamide], 1520 nM.
`COc1ccc(C(NC(=O)[C@@H]2CNC(=O)O2)c2ccc(Cl)cc2)cn1` (single isomer, unassigned) [Example 22B, (S)-N-((R or S)-(4-chlorophenyl)(6-methoxypyridin-3-yl)methyl)-2-oxooxazolidine-5-carboxamide] displayed an IC50 of 314 nM.
As for `COc1ccc(Cl)cc1C(NC(=O)[C@@H]1CNC(=O)O1)c1cccc(Cl)c1` (single isomer, unassigned) [Example 28B, (S)-N-((R or S)-(5-chloro-2-methoxyphenyl)(3-chlorophenyl)methyl)-2-oxooxazolidine-5-carboxamide], the figure is 8.4 nM.
For the molecule `CC(C)c1cccc(C(NC(=O)[C@@H]2CNC(=O)O2)c2ccc(Cl)cc2)c1` (single isomer, unassigned) [Example 32A, (S)-N-((R or S)-(4-chlorophenyl)(3-isopropylphenyl)methyl)-2-oxooxazolidine-5-carboxamide], it took 5 nM to reach half-maximal inhibition (IC50).
The molecule `O=C1NC[C@@H](C(=O)NC(c2ccc(C(F)(F)F)nc2)c2csc(C(F)(F)F)n2)O1` (stereo partly drawn) [Example 64, (5S)-2-oxo-N-((6-(trifluoromethyl)pyridin-3-yl)(2-(trifluoromethyl)thiazol-4-yl)methyl)oxazolidine-5-carboxamide] had an IC50 of 129 nM.
As for `O=C1NC[C@@H](C(=O)NC(c2ccc(OC(F)(F)F)c(Cl)c2)c2ccnc(C(F)(F)F)n2)O1` (single isomer, unassigned) [Example 52A, (S)-N-((R or S)-(3-chloro-4-(trifluoromethoxy)phenyl)(2-(trifluoro-methyl)pyrimidin-4-yl)methyl)-2-oxooxazolidine-5-carboxamide], the figure is 7.9 nM; as for `O=C1NC[C@@H](C(=O)NC(c2ccc(Cl)cc2)c2nc(C(F)(F)F)c[nH]2)O1` (stereo partly drawn) [Example 40, (5S)-N-((4-chlorophenyl)(4-(trifluoromethyl)-1H-imidazol-2-yl)methyl)-2-oxooxazolidine-5-carboxamide], 397 nM.
